Experimental data published in US9789181B2, “PAN-DR binding polypeptides and uses thereof” (Epimmune Inc., priority 2009, dated 2017).
Where no end group is shown, it is not given here.

What was measured:
purified HLA DRB1 *0404 = purified HLA DRB1 *0404 (Homo sapiens, UniProt P01903+P01911, A100R/A169T/F76Y/I96L/K127E/L162R/M171V/N62H/P40V/Q125Y/R42H/S133A/S149N/S66Y/V209L/W38E); test: IC50nM to purified HLA | DRB1 *0404
Description: (§1) Table printed on a drawing sheet, FIG. 1
Head of the field: IC50nM to purified HLA | DRB1 *0404
(§2) First copying reader's note: The comma is the decimal sign and the point a thousands separator (e.g. 21.831); some values are printed bold or italic and some SEQ ID NOs underlined, with no legend on the sheet.
Where the first naming reader finds the target: head: IC50nM to purified HLA | DRB1 *0404

purified HLA DRB4 *0101 = purified HLA DRB4 *0101 (Homo sapiens, UniProt P01903+P13762, G164S); test: IC50nM to purified HLA | DRB4 *0101
Description: as §1
Head of the field: IC50nM to purified HLA | DRB4 *0101
as §2
Where the first naming reader finds the target: head: IC50nM to purified HLA | DRB4 *0101

purified HLA DRB1 *0401 = purified HLA DRB1 *0401 (Homo sapiens, UniProt P01903+P01911, A100K/A169T/F76Y/I96L/K127E/L162R/M171V/N62H/P40V/Q125Y/R42H/S133A/S149N/S66Y/V115G/V209L/W38E); test: IC50nM to purified HLA | DRB1 *0401
Description: as §1
Head of the field: IC50nM to purified HLA | DRB1 *0401
as §2
Where the first naming reader finds the target: head: IC50nM to purified HLA | DRB1 *0401

purified HLA DRB1 *0802 = purified HLA DRB1 *0802 (Homo sapiens, UniProt P01903+P01911, A100R/A103L/A169T/F76Y/H45Y/I96F/K41T/L162R/M171V/P40S/Q125H/Q178H/Q39Y/Q99D/R218S/R42G/S66Y/V115G/W38E); test: IC50nM to purified HLA | DRB1 *0802
Description: as §1
Head of the field: IC50nM to purified HLA | DRB1 *0802
as §2
Where the first naming reader finds the target: head: IC50nM to purified HLA | DRB1 *0802

purified HLA DRB1 *0701 = purified HLA DRB1 *0701 (Homo sapiens, UniProt P01903+P01911, A100R/A102G/A103Q/D57E/D86V/E43K/F76Y/K127E/L162R/M171V/P40G/Q125H/Q99D/R33Q/R42Y/R54Q/S133A/S66F/T210M/V115G/Y107V/Y59L/Y89S); test: IC50nM to purified HLA | DRB1 *0701
Description: as §1
Head of the field: IC50nM to purified HLA | DRB1 *0701
as §2
Where the first naming reader finds the target: head: IC50nM to purified HLA | DRB1 *0701

purified HLA DRB1 *1501 = purified HLA DRB1 *1501 (Homo sapiens, UniProt P01903+P01911); test: IC50nM to purified HLA | DRB1 *1501
Description: as §1
Head of the field: IC50nM to purified HLA | DRB1 *1501
as §2
Where the first naming reader finds the target: head: IC50nM to purified HLA | DRB1 *1501

purified HLA DRB1 *0301 = purified HLA DRB1 *0301 (Homo sapiens, UniProt P01903+P01911, A100K/A102G/A103R/A169T/F55Y/I96L/K41T/L162R/M171V/P40S/Q125H/Q178H/Q39Y/R42S/S66N/T106N/T262R/W38E/Y61H); test: IC50nM to purified HLA | DRB1 *0301
Description: as §1
Head of the field: IC50nM to purified HLA | DRB1 *0301
as §2
Where the first naming reader finds the target: head: IC50nM to purified HLA | DRB1 *0301

purified HLA DRB1 *0101 = purified HLA DRB1 *0101 (Homo sapiens, UniProt P01903+P01911, A100R/D57E/F55L/F60I/F76Y/I96L/L162R/M171V/P40L/Q125E/R42F/V115G/Y59C); test: IC50nM to purified HLA | DRB1 *0101
Description: as §1
Head of the field: IC50nM to purified HLA | DRB1 *0101
as §2
Where the first naming reader finds the target: head: IC50nM to purified HLA | DRB1 *0101

purified HLA DRB5 *0101 = purified HLA DRB5 *0101 (Homo sapiens, UniProt P01903+Q30154); test: IC50nM to purified HLA | DRB5 *0101
Description: as §1
Head of the field: IC50nM to purified HLA | DRB5 *0101
as §2
Where the first naming reader finds the target: head: IC50nM to purified HLA | DRB5 *0101

purified HLA DRB1 *0405 = purified HLA DRB1 *0405 (Homo sapiens, UniProt P01903+P01911, A100R/A169T/D86S/F76Y/I96L/K127E/L162R/M171V/N62H/P40V/Q125Y/R42H/S133A/S149N/S66Y/V115G/V209L/W38E); test: IC50nM to purified HLA | DRB1 *0405
Description: as §1
Head of the field: IC50nM to purified HLA | DRB1 *0405
as §2
Where the first naming reader finds the target: head: IC50nM to purified HLA | DRB1 *0405

purified HLA DRB1 *1302 = purified HLA DRB1 *1302 (Homo sapiens, UniProt P01903+P01911, A100E/A169T/K41T/L162R/M171V/P40S/Q125H/Q178H/Q39Y/Q99D/R42S/S66N/T262R/V115G/W38E/Y61H); test: IC50nM to purified HLA | DRB1 *1302
Description: as §1
Head of the field: IC50nM to purified HLA | DRB1 *1302
as §2
Where the first naming reader finds the target: head: IC50nM to purified HLA | DRB1 *1302

purified HLA DRB1 *1302, sequence (P01903 26-254 limits assumed, other chains not shown): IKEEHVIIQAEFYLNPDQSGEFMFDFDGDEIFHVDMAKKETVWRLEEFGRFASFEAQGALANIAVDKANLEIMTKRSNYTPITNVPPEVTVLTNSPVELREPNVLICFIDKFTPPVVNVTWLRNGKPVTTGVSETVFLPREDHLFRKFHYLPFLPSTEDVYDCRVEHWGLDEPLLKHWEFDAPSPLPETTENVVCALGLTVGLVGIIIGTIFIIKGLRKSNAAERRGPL
purified HLA DRB4 *0101, sequence (P01903 26-254 limits assumed): as the sequence (P01903 26-254 limits assumed, other chains not shown) above
purified HLA DRB4 *0101, sequence (P13762 whole entry G164S): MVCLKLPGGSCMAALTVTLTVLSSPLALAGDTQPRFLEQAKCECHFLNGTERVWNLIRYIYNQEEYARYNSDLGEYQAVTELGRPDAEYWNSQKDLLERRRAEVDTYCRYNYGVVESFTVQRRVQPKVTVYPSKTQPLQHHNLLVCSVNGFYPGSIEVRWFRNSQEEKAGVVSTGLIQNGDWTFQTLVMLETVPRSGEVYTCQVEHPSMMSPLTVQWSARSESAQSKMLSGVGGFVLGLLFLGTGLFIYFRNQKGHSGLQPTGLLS
purified HLA DRB1 *0301, sequence (P01903 26-254 limits assumed, other chains not shown): as the sequence (P01903 26-254 limits assumed, other chains not shown) above

Sequence	IC50 (purified HLA DRB1 *0404)	IC50 (purified HLA DRB4 *0101)	IC50 (purified HLA DRB1 *0401)	IC50 (purified HLA DRB1 *0802)	IC50 (purified HLA DRB1 *0701)	IC50 (purified HLA DRB1 *1501)	IC50 (purified HLA DRB1 *0301)	IC50 (purified HLA DRB1 *0101)	IC50 (purified HLA DRB5 *0101)	IC50 (purified HLA DRB1 *0405)	IC50 (purified HLA DRB1 *1302)
AAAFFVAAWTLHAAA [SEQ ID NO: 12]	2.9 nM	440 nM	2.2 nM	7.8 nM	60 nM	25 nM	129 nM	3.6 nM			
AAAFFVAAYTLHAAA [SEQ ID NO: 13]	2.3 nM	805 nM	1.7 nM	7.4 nM	54 nM	4.8 nM	151 nM	4.4 nM	11 nM	19 nM	
AAAHFVAAWTLHAAA [SEQ ID NO: 26]		267 nM		9.3 nM	53 nM			4.2 nM			1190 nM
AAAHFVAAYTLHAAA [SEQ ID NO: 27]	5.7 nM	526 nM	3.4 nM	11 nM	94 nM	4.2 nM	214 nM	3.8 nM	30 nM		1320 nM
AAAWFVAAFTLHAAA [SEQ ID NO: 9]		115 nM	3.1 nM		69 nM	38 nM	139 nM	5.3 nM	30 nM		
AAAYFVAANTLHAAA [SEQ ID NO: 24]	5.2 nM	703 nM	3.3 nM		49 nM	53 nM	130 nM	4.5 nM			54 nM
AAAYFVAAWTLHAAA [SEQ ID NO: 21]		279 nM		9.7 nM	55 nM		119 nM	3.7 nM		6.9 nM	
